Assay results taken from patent US7713923B2, “Self-assembling peptides incorporating modifications and methods of use thereof” (Massachusetts Institute of Technology, priority 2003, dated 2010).

Legend:
[1] = system: human aortic endothelial cells (HAEC); test: HAEC proliferation and competition assays with soluble peptide motifs; format: cell-based; settings: 100% RAD16-I, no soluble peptide, improved cell isolation
Experimental: (§1) Meanwhile, human aortic endothelial cells (HAEC) (CC-2535, Cambrex, MD) that had been maintained under standard culture conditions (passage 5-6) were harvested at 80% confluence using trypsin and loaded on top of the preformed peptide scaffolds at a cell density of 8×10^4 cells/cm^2 and cultured in the cell culture incubator at 37° C. with 5% CO2. Cell attachment assays were performed one hour after the initial cell loading. To perform the assays, the covering media was removed, and unattached cells were counted on a hematocytometer. Cell counting was performed by mechanically disrupting the scaffold containing cells by pipetting up and down and then counting cells on a hematocytometer after performing Trypan blue (T 9906, Sigma, MO) exclusion assay staining to assess cell viability. In some experiments, for comparison, EC were cultured on inserts coated with Matrigel or collagen (1.5 mg/ml, i.e. 0.15%) according to standard protocols.
Competition assays with free soluble peptide sequences. HAEC were cultured as described on peptide scaffolds in cell culture inserts as described above. For each scaffold, the corresponding soluble motif sequence, or one of the other motifs not present in the scaffold, was added to the media of HAEC cultures at a final concentration of 400 μg/ml. Half of the media was changed every other day. […] The next day, cell numbers were evaluated as described above. […]

[2] = system: human aortic endothelial cells (HAEC); test: HAEC attachment assay on peptide scaffolds; format: cell-based; settings: after one hour; modified peptides as 9:1 blends with RAD16-I
Experimental: as §1

[3] = system: human aortic endothelial cells (HAEC); test: NO release determination (Griess method); format: cell-based; settings: nitrite in culture supernatant; RAD16-I 100%, others 9:1 blend
Experimental: NO release determination. Nitric oxide (NO) release was estimated by measuring nitrites (NOx) by the Griess method. Briefly, the media was replaced after the third day of culture by new media without fetal bovine serum (FBS) or ascorbic acid. The next day, the media was used to analyze NO release using a commercially available kit (482702, Calbiochem, CA) following the manufacturer instructions. Each condition was tested in triplicate.

[4] = system: human aortic endothelial cells (HAEC); test: HAEC monolayer formation on peptide scaffolds; format: cell-based; design: key to HAEC monolayer formation, peptide content 100% / HAEC monolayer formation, Blending (9:1): +: Score for optimal monolayer formation and cell survival; −: Score for poor or none monolayer formation and cell survival
Experimental: Endothelial cell culture system. Peptide scaffolds (0.5% w/v) were prepared at 100% peptide sequence for RAD16-I or blended with RAD16-I at a radio of 9:1 (RAD16-I: peptide sequence, on a volume/volume basis) for the three other cases (YIG, RYV, and TAG). Each solution was filtered (0.2 μm, Acrodysc filters, 4192, PALL, MI), loaded (30 μl) on top of a cell culture chamber insert (10 mm diameter, 136935, Nalge Nunc International, IL), and allowed to form a layer (average thickness=600 μm). Phosphate Buffer Saline (PBS) (600 μl) was added at the bottom of the well to induce hydrogel formation, and the system was incubated at room temperature for 30 min. PBS was replaced with culture medium, which was then replaced with fresh medium. The scaffolds were incubated for 1 hour with endothelial cell growth media (EGM-2, Cambrex, MD) in a cell culture incubator at 37° C. with 5% CO2.
as §1
In a first experiment, we tested the ability of HAEC to attach and form a monolayer when seeded on various peptide scaffolds generated by self-assembly of the peptides following addition of PBS to a 0.5%(w/v) solution of the peptide in water. […] HAEC cultured in the presence of scaffolds generated from peptides incorporating the other biologically active peptide motifs either died or formed isolated clusters (FIGS. 9A-9G).
We therefore decided to blend the peptides incorporating biologically active motifs with the prototypic RAD16-I sequence in order to reduce the overall concentration of the biologically active motif presented to cells. We selected a volume/volume ratio of 9:1 (RAD16-I:modified peptide sequence comprising biologically active peptide motif, where peptides were dissolved at equal concentrations on a w/w basis) and generated peptide scaffolds from solutions in which the unmodified and modified peptides were present in this ratio.

[5] = Circular dichroism (secondary structure); format: physicochemical; settings: 25 μM peptide in water, room temperature, 195-250 nm
Experimental: Circular dichroism (DC). CD spectra were gathered on an Aviv model 202 spectropolarimeter. Samples were prepared by diluting stock peptide solutions in water (0.5%) to a working concentration of 25 μM. Samples were analysed at room temperature in a quartz cuvette with a path length of 0.3 cm and in the wavelength range 195-250 nm.
Circular dichroism. CD spectra were obtained for each peptide sequence to assess its secondary structure. The secondary structure identifies ordered structures within a polypeptide such as α-helices and β-sheets. […] (Havel, 1996).

In the case of `CC(=O)N[C@@H](CCCNC(=N)N)C(=O)N[C@@H](C)C(=O)N[C@@H](CC(=O)O)C(=O)N[C@@H](C)C(=O)N[C@@H](CCCNC(=N)N)C(=O)N[C@@H](C)C(=O)N[C@@H](CC(=O)O)C(=O)N[C@@H](C)C(=O)N[C@@H](CCCNC(=N)N)C(=O)N[C@@H](C)C(=O)N[C@@H](CC(=O)O)C(=O)N[C@@H](C)C(=O)N[C@@H](CCCNC(=N)N)C(=O)N[C@@H](C)C(=O)N[C@@H](CC(=O)O)C(=O)N[C@@H](C)C(N)=O` [RAD16-I, AcN-(RADA)4-CONH2], the “HAEC proliferation lower than on scaffolds made from peptide blends” value [1] is reported as 2-2.5 fold, the “HAEC attachment to the surface” value [2] is reported as ~100% and the “nitric oxide (NO) release by HAEC” value [3] is reported as “promote NO release”. For the same compound, the “HAEC monolayer formation, scaffold of 100% peptide” value ([4]; 0.5% (w/v) peptide, no blending) was “monolayer formation was observed”, the “HAEC monolayer formation and cobblestone morphology on gel systems” value ([4]; after 3 days in culture) was “less than on blended scaffolds or on Matrigel or collagen-I” and the “HAEC monolayer formation, peptide content 100%” value ([4]; scaffold of 100% peptide, 0.5% (w/v)) was “+¶”. The “Secondary structure (CD)” value [5] was “β-sheet”.
